In patent US9926529B2, “Derivation of neural stem cells and dopaminergic neurons from human pluripotent stem cells” (International Stem Cell Corporation, priority 2012, dated 2018) one finds fold induction data, which are given here for 1 molecule.

Molecules are shown by their SMILES. Where two headings read alike, the source gives them in different places.

The test deals with hPSC-NSCs. The test is described as follows: RT-PCR expression of dopamine neuron genes in hPSC-NSCs treated with small molecule hits. The format is cell-based, human. Particulars: Homo sapiens, Neuron, 336 h, hPSC-NSCs primed 7 days with Purmorphamine and FGF8, small molecule 2.5 μM for two weeks. The method in brief: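 hPSC-NSCs pre-patterned 7 days with Purmorphamine (2 μM) plus FGF8 (100 ng/mL) in NB medium, then treated with compounds at 2.5 μM final for two weeks. Total RNA reverse-transcribed; SYBR Green qPCR for dopaminergic/neuronal markers, relative quantification against a standard curve, normalized to PPIG; mean±s.e.m.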

On to `C/C=C1\C(=O)C[C@H]2[C@@H]3CCC4=CC(=O)CC[C@]4(C)[C@H]3CC[C@]12C` [Guggulsterone], for which the fold induction at 2.5 µM turned out to be 9.82 (read-out: DDC (AADC) expression by RT-PCR); 10 (read-out: EN1 expression by RT-PCR); 0.01 (read-out: KCNJ6 expression by RT-PCR); 6.45 (read-out: LMX1B expression by RT-PCR); 9.05 (read-out: MAP2 expression by RT-PCR); 0.53 (read-out: NR4A2 (NURR1) expression by RT-PCR). Also, the fold induction at 2.5 µM (read-out: PITX3 expression by RT-PCR) came out at 0.48; the fold induction at 2.5 µM (read-out: Pax2 expression by RT-PCR) amounted to 0.03; the fold induction at 2.5 µM (read-out: SLC6A3 (DAT) expression by RT-PCR) was determined as 1.03; the fold induction at 2.5 µM (read-out: TH1 expression by RT-PCR) came to 10.6; the fold induction at 2.5 µM (read-out: Tubb3 expression by RT-PCR) was determined as 6.83.
